The values that follow come from US11608342B2, “PDE9 inhibitors with imidazo triazinone backbone and imidazo pyrazinone backbone for treatment of peripheral diseases” (H. LUNDBECK A/S, priority 2015, dated 2023).

The nature of data set [1]: Blood Brain Barrier penetration (brain-to-plasma distribution). The conditions noted are these: mouse, 10 mg/kg subcutaneous. It counts as in vivo, Male CD mice. As to the method:
Male CD mice (20-24 g) were housed pair-wise with free access to food and water for an acclimatization period of 3-7 days before initiation of experiments. Prior to dosing the animals were fasted overnight. During testing, mice were kept in individual cages. The brain-to-plasma distribution was assessed 30 minutes and 2 hours after subcutaneous administration of the test compound at a dose of 10 mg/kg (n=3 at each time point). The dose volume was 10 ml/kg using appropriate vehicle to solubilize each test compound. At the time of sampling, animals were anesthetized with isoflurane and a systemic blood sample collected by cardiac puncture into vacutainers containing sodium heparin as anti-coagulant. The blood was centrifuged at 3500 rpm for 10 minutes at 4° C. to obtain plasma. Following decapitation, brains were dissected out and transferred to pre-weighed vessels followed by tissue weights determination. Plasma and brains were stored at −80° C. until quantitative bioanalysis by LC-MS/MS. Results are expressed as ng/ml for plasma and ng/g for brain samples.

Another data set deals with PDE9 (Homo sapiens (Human), UniProt O76083). Kind of data set: PDE9 inhibition assay. The data set is classed as biochemical. Conditions: 3H-cAMP substrate, SPA. As to the method: Reactions are initiated by addition of the cyclic nucleotide substrate, and reactions are allowed to proceed for one hr at room temperature before being terminated through mixing with 15 uL 8 mg/mL yttrium silicate SPA beads (Amersham). […] Following a 1 hour incubation the reactions were terminated by addition of 15 uL 8 mg/mL yttrium silicate SPA beads (Amersham). […] IC50 values were calculated by nonlinear regression using XLfit (IDBS).
Chain of PDE9 (O76083 whole entry): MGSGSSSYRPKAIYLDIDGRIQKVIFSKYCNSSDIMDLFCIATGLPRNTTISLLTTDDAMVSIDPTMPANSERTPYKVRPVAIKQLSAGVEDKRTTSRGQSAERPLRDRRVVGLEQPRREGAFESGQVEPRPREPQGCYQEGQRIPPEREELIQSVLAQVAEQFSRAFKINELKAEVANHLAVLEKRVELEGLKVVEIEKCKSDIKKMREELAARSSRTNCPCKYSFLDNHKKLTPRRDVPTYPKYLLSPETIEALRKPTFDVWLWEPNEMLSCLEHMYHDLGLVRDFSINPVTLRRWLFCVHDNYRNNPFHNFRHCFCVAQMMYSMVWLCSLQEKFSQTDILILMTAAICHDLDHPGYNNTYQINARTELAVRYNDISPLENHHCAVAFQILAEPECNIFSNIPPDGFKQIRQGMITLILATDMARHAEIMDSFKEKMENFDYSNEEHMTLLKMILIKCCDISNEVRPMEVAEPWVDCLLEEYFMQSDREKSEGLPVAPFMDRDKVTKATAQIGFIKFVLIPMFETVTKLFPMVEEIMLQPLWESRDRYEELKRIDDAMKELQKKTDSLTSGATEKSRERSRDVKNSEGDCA

`C[C@@H]1CN(Cc2ncccn2)C[C@H]1c1cn2c(C3CCOCC3)ncc2c(=O)[nH]1` (single isomer, unassigned) [Compound (P3, enantiomer 1)]: the “Brain concentration after 120 minutes” value in data set [1] is 120 mm.: 7 ng/mL. The same molecule displayed an IC50 against PDE9 of 0.049 µM.
As for `O=c1[nH]c(CN2CC(Oc3cccnc3)C2)cn2c(C3CCOCC3)ncc12` [Compound (P2), 6-[3-(pyridin-3-yloxy)-azetidin-1-ylmethyl]-3-(tetrahydropyran-4-yl)-7H-imidazo[1,5-a]pyrazin-8-one], the “Brain concentration after 30 minutes” value in data set [1] (30 min) is listed as “Below detection”. For the same molecule, the “Brain concentration after 120 minutes” value in data set [1] was “Below detection”.

What is called IC50 is the concentration that inhibits the measured activity by half.
